Read-outs that look alike come from different tables or passages of the source.

In one assay the test system is urea cycle genes. The assay can be described thus: RNA-seq of primary human hepatocytes, compounds that modulate multiple urea cycle-related genes. It is filed as cell-based. The settings on record: primary human hepatocytes, RNA-seq; for Up-regulated Genes: urea cycle-related genes significantly increased (Table 10).
The next assay relates to ASS1. Nature of the assay: RNA-seq of compound-treated primary human hepatocytes, ASS1 expression. Format: cell-based. The settings on record: primary human hepatocytes; for Relative ASS1 level vs Untreated (±Standard Deviation): triplicate (Table 15, FIG. 7); for Fold change (Log 2) vs untreated, ASS1 expression: RNA-seq (Table 4).
The subject of another assay is SLC25A15. The assay can be described thus: RNA-seq of compound-treated primary human hepatocytes, SLC25A15 expression. It is filed as cell-based. The note with it: for Relative SLC25A15 level vs Untreated (±Standard Deviation): primary human hepatocytes, triplicate (Table 24, FIG. 16A-B); for Increase in SLC25A15 gene expression (qualitative): Example 11, relative mRNA vs DMSO.

The next assay deals with NAGS. Format: cell-based, human. The settings on record: for Relative NAGS level vs Untreated (±Standard Deviation): triplicate (Table 21, FIG. 13).
For another assay, the system named is ARG1. The assay can be described thus: RNA-seq of compound-treated primary human hepatocytes, ARG1 expression. It is filed as cell-based. The note with it: for Relative ARGI level vs Untreated (±Standard Deviation): primary human hepatocytes, triplicate (Table 17, FIG. 9).
[1] abbreviates: 0.3 μM, primary human hepatocytes.
Where [2] appears, read: primary human hepatocytes, RNA-seq (Table 6).

Consider `N#CCNC(=O)c1ccc(-c2ccnc(Nc3ccc(N4CCOCC4)cc3)n2)cc1` [Momelotinib], for which, in the assay on urea cycle genes, the “number of urea cycle genes whose expression was significantly up-regulated” value was “three” and the “Up-regulated Genes” value is “CPS1, OTC, ARG1”.

With `CCN(CC)CCNC(=O)c1c(C)[nH]c(/C=C2\C(=O)Nc3ccc(F)cc32)c1C` [Sunitinib], the results for the “Relative ASS1 level vs Untreated (±Standard Deviation)” value with ASS1 (3 μM) and in the assay on ASS1 (10 μM) were 2.25 ± 0.45 and 2.70 ± 0.37, respectively. For the same molecule, the “Relative SLC25A15 level vs Untreated (±Standard Deviation)” value is recorded as 1.32 ± 0.08 in the assay on SLC25A15 (0.3 μM), 2.36 ± 0.20 in the assay on SLC25A15 (3 μM) and 2.43 ± 0.29 in the assay on SLC25A15 (10 μM). Besides, the “Relative NAGS level vs Untreated (±Standard Deviation)” value in the assay with NAGS (setting [1]) is recorded as 1.40 ± 0.03; with NAGS (1 μM, primary human hepatocytes), 1.63 ± 0.42. Also, in the assay on ARG1 (10 μM), the “Relative ARGI level vs Untreated (±Standard Deviation)” value was determined as 1.36 ± 0.01.

In the case of `O=C1NC(=O)/C(=C/c2cccc(C(F)(F)F)c2)S1` [SMI-4a], in the assay on ASS1, the “Fold change (Log 2) vs untreated, ASS1 expression” value is listed as 0.69 Log 2. Moreover, in the assay with NAGS, the “Fold change (Log 2) vs untreated, NAGS expression” value turned out to be 1.25 Log 2.

Regarding `C[C@]12C=CC(=O)C=C1CC[C@@H]1[C@@H]2C(=O)C[C@@]2(C)[C@H]1CC[C@]2(O)C(=O)CO` [prednisone], the “Fold change (Log 2) vs untreated, NAGS expression” value in the assay on NAGS (setting [2]) turned out to be 1 Log 2. Also, in the assay with urea cycle genes, the “number of urea cycle genes whose expression was significantly up-regulated” value is given as “three” and the “Up-regulated Genes” value is “CPS1, NAGS, ARG1”.

Consider `CCn1c(=O)c(-c2ccc(-c3cncs3)cc2Cl)cc2cnc(Nc3ccc(N4CCN(C)CC4)cc3)nc21` [FRAX597], for which, in the assay on urea cycle genes, the “number of urea cycle genes whose expression was significantly up-regulated” value is reported as “five” and the “Up-regulated Genes” value was “CPS1, ASS1, OTC, ARG1, SLC25A15”.

For `CS[C@H]1SC[C@H]2C(=O)N(C)[C@@H](C(C)C)C(=O)OC[C@@H](NC(=O)c3cnc4ccccc4n3)C(=O)N[C@@H](C)C(=O)N(C)[C@@H]1C(=O)N(C)[C@@H](C(C)C)C(=O)OC[C@@H](NC(=O)c1cnc3ccccc3n1)C(=O)N[C@@H](C)C(=O)N2C` [Echinomycin], the “Increase in SLC25A15 gene expression (qualitative)” value with SLC25A15 is “greatest increase”. Besides, the “number of urea cycle genes whose expression was significantly up-regulated” value in the assay on urea cycle genes is “six”.

In the case of `COc1cc(Nc2ncc(F)c(Nc3ccc4c(n3)N(COP(=O)(O)O)C(=O)C(C)(C)O4)n2)cc(OC)c1OC` [R788 (fostamatinib disodium hexahydrate), fostamatinib disodium hexahydrate], in the assay on urea cycle genes, the “number of urea cycle genes whose expression was significantly up-regulated” value is on record as “three” and the “Up-regulated Genes” value was “CPS1, ARG1, SLC25A15”.

Consider `CC(C)c1cc(CNc2nc(Nc3cc(C4CC4)[nH]n3)cc(N3CCN(C)CC3)n2)on1` [XL228], for which the figures for the “Relative ASS1 level vs Untreated (±Standard Deviation)” value with ASS1 (1 μM), in the assay on ASS1 (3 μM) and in the assay with ASS1 (10 μM) were 1.83 ± 0.02, 1.45 ± 0.10 and 2.05 ± 0.00, respectively. The “Increase in SLC25A15 gene expression (qualitative)” value with SLC25A15 is reported as “greatest increase”. The “Relative ARGI level vs Untreated (±Standard Deviation)” value in the assay on ARG1 (0.3 μM) is on record as 1.47 ± 0.11; with ARG1 (1 μM), 2.05 ± 0.11; in the assay with ARG1 (3 μM), 2.15 ± 0.04. Moreover, the “increase in ARG1 gene expression (Tables 17, 18, FIG. 9, 10)” value in the assay on ARG1 (Example 11, relative mRNA vs DMSO) is on record as “greatest increase”.

Consider `CCn1c(=O)c(-c2cc[nH]n2)cc2c(C)nc(N)nc21` [Voxtalisib], for which the “Relative ASS1 level vs Untreated (±Standard Deviation)” value in the assay on ASS1 (10 μM) is 1.43 ± 0.13. For the same molecule, the “Relative NAGS level vs Untreated (±Standard Deviation)” value in the assay with NAGS (setting [1]) is on record as 1.35 ± 0.04; in the assay with NAGS (3 μM, primary human hepatocytes) it was 1.33 ± 0.15; with NAGS (10 μM, primary human hepatocytes), 1.78 ± 0.04. Besides, the “Relative ARGI level vs Untreated (±Standard Deviation)” value was 1.34 ± 0.16 in the assay on ARG1 (3 μM) and 1.48 ± 0.18 in the assay on ARG1 (10 μM).

In the case of `CN(C)[C@@H]1C(O)=C(C(N)=O)C(=O)[C@@]2(O)C(O)=C3C(=O)c4c(O)c(NC(=O)CN5CCCC5)cc(F)c4C[C@H]3C[C@@H]12` [TP-434 (Eravacycline), Eravacycline], the “Fold change (Log 2) vs untreated, ASS1 expression” value in the assay on ASS1 worked out at 0.76 Log 2. Further, the “Fold change (Log 2) vs untreated, NAGS expression” value with NAGS (setting [2]) worked out at 1.5 Log 2.

Values taken from US11266655B2, “Methods and compositions for treating urea cycle disorders” (Camp4 Therapeutics Corporation, priority 2019, dated 2022).
